How the values were obtained:
Assay in all cases: Ambit kinase profiling, competition binding
AAK1 = target: T1, AAK1 (Homo sapiens, UniProt Q2M2I8); details: compound concentration 10 uM, read-out: Percent Competition
T1 construct: purchased Ambit Biosciences (KINOMEscan)
Source text: (§1) Supplement pone.0044653.s004.xls, sheet "Compound 122" | column: Percent Competition

AMPK-alpha2 = target: T2, AMPK-alpha2 (Homo sapiens, UniProt P54646); details: compound concentration 10 uM, read-out: Percent Competition
T2 construct: purchased Ambit Biosciences (KINOMEscan)
T2 sequence (P54646 whole entry): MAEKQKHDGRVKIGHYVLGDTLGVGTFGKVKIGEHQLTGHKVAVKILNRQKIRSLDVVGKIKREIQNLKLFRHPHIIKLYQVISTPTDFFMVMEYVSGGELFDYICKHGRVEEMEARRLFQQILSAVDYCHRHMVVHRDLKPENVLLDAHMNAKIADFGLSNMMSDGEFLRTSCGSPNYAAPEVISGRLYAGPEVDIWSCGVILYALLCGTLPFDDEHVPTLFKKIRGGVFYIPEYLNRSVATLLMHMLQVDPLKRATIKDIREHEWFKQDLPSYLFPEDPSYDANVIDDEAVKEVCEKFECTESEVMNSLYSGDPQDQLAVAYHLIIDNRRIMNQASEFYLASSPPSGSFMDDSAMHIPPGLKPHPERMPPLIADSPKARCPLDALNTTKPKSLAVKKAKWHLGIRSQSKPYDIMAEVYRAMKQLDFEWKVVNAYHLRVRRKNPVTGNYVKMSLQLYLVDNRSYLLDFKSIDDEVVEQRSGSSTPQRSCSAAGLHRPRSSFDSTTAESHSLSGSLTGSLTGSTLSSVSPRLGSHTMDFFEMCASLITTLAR
Source text: as §1

ASK1 = target: T3, ASK1 (Homo sapiens, UniProt Q99683); details: compound concentration 10 uM, read-out: Percent Competition
T3 construct: purchased Ambit Biosciences (KINOMEscan)
Source text: as §1

BLK = target: T4, BLK (Homo sapiens, UniProt P51451); details: compound concentration 10 uM, read-out: Percent Competition
T4 construct: purchased Ambit Biosciences (KINOMEscan)
Source text: as §1

BRK = target: T5, BRK (Homo sapiens, UniProt Q13882); details: compound concentration 10 uM, read-out: Percent Competition
T5 construct: purchased Ambit Biosciences (KINOMEscan)
Source text: as §1

BRSK2 = target: T6, BRSK2 (Homo sapiens, UniProt Q8IWQ3); details: compound concentration 10 uM, read-out: Percent Competition
T6 construct: purchased Ambit Biosciences (KINOMEscan)
Source text: as §1

CDC2L1 = target: T7, CDC2L1 (Homo sapiens, UniProt P21127); details: compound concentration 10 uM, read-out: Percent Competition
T7 construct: purchased Ambit Biosciences (KINOMEscan)
Source text: as §1

CDK8 = target: T8, CDK8 (Homo sapiens, UniProt P49336); details: compound concentration 10 uM
T8 construct: purchased Ambit Biosciences (KINOMEscan)
Source text: as §1

CSNK2A1 = target: T9, CSNK2A1 (Homo sapiens, UniProt P68400); details: compound concentration 10 uM, read-out: Percent Competition
T9 construct: purchased Ambit Biosciences (KINOMEscan)
Source text: as §1

DCAMKL2 = target: T10, DCAMKL2 (Homo sapiens, UniProt Q8N568); details: compound concentration 10 uM, read-out: Percent Competition
T10 construct: purchased Ambit Biosciences (KINOMEscan)
Source text: as §1

DCAMKL3 = target: T11, DCAMKL3 (Homo sapiens, UniProt Q9C098); details: compound concentration 10 uM, read-out: Percent Competition
T11 construct: purchased Ambit Biosciences (KINOMEscan)
Source text: as §1

DMPK = target: T12, DMPK (Homo sapiens, UniProt Q09013); details: compound concentration 10 uM, read-out: Percent Competition
T12 construct: purchased Ambit Biosciences (KINOMEscan)
Source text: as §1

EPHB2 = target: T13, EPHB2 (Homo sapiens, UniProt P29323); details: compound concentration 10 uM
T13 construct: purchased Ambit Biosciences (KINOMEscan)
Source text: as §1

FAK = target: T14, FAK (Homo sapiens, UniProt Q05397); details: compound concentration 10 uM, read-out: Percent Competition
T14 construct: purchased Ambit Biosciences (KINOMEscan)
T14 sequence (Q05397 whole entry): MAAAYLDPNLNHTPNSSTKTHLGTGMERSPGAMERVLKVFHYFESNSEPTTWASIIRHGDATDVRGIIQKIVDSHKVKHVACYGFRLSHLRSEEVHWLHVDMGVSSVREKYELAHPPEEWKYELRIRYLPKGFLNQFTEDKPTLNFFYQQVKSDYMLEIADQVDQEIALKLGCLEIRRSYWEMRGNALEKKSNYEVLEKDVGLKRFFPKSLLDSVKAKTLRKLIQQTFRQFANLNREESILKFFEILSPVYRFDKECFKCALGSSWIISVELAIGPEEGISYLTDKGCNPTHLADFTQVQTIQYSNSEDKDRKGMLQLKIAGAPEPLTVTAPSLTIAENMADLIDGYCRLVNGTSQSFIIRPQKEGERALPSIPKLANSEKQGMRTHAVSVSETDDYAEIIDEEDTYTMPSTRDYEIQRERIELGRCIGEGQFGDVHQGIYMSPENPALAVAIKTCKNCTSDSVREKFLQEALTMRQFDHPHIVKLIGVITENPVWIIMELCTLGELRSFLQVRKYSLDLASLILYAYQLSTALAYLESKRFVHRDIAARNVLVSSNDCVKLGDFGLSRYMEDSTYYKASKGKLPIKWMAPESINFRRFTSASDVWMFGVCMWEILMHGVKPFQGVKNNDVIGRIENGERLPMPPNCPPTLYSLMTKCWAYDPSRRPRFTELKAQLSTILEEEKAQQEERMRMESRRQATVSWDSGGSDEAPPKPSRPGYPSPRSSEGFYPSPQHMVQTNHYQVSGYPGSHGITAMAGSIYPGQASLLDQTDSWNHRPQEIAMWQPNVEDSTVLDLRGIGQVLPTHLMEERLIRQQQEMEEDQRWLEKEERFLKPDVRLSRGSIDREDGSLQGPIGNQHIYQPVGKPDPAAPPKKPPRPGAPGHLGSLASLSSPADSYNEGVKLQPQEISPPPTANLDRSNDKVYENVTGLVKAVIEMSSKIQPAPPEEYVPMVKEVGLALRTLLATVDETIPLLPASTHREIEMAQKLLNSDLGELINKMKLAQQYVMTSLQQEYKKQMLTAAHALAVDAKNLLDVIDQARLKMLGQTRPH
Source text: as §1

FGFR4 = target: T15, FGFR4 (Homo sapiens, UniProt P22455); details: compound concentration 10 uM, read-out: Percent Competition
T15 construct: purchased Ambit Biosciences (KINOMEscan)
Source text: as §1

FLT4 = target: T16, FLT4 (Homo sapiens, UniProt P35916); details: compound concentration 10 uM, read-out: Percent Competition
T16 construct: purchased Ambit Biosciences (KINOMEscan)
Source text: as §1

HIPK1 = target: T17, HIPK1 (Homo sapiens, UniProt Q86Z02); details: compound concentration 10 uM, read-out: Percent Competition
T17 construct: purchased Ambit Biosciences (KINOMEscan)
Source text: as §1

IGF1R = target: T18, IGF1R (Homo sapiens, UniProt P08069); details: compound concentration 10 uM, read-out: Percent Competition
T18 construct: purchased Ambit Biosciences (KINOMEscan)
Source text: as §1

[1] = target: T19, JAK2(JH1domain-catalytic) (Homo sapiens, UniProt O60674); details: compound concentration 10 uM
T19 construct: JAK2(JH1domain-catalytic); purchased Ambit Biosciences (KINOMEscan)
Source text: as §1

LTK = target: T20, LTK (Homo sapiens, UniProt P29376); details: compound concentration 10 uM, read-out: Percent Competition
T20 construct: purchased Ambit Biosciences (KINOMEscan)
Source text: as §1

MAP3K3 = target: T21, MAP3K3 (Homo sapiens, UniProt Q99759); details: compound concentration 10 uM, read-out: Percent Competition
T21 construct: purchased Ambit Biosciences (KINOMEscan)
T21 sequence (Q99759 whole entry): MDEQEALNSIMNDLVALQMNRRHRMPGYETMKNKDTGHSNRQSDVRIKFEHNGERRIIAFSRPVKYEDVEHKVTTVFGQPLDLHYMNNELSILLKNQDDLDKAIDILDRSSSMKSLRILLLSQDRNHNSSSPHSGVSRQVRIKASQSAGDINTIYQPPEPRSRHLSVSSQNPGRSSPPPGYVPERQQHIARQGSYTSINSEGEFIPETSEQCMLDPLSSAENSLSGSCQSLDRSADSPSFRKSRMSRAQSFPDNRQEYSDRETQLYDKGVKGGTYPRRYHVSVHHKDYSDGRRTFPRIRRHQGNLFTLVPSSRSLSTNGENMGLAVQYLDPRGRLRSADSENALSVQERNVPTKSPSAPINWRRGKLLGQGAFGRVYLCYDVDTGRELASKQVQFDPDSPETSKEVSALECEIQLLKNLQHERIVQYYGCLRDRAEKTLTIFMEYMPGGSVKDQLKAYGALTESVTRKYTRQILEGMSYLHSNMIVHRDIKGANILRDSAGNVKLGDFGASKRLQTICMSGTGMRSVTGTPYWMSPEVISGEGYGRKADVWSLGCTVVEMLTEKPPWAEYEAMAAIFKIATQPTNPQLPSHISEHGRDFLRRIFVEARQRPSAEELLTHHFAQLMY
Source text: as §1

MAPKAPK2 = target: T22, MAPKAPK2 (Homo sapiens, UniProt P49137); details: compound concentration 10 uM, read-out: Percent Competition
T22 construct: purchased Ambit Biosciences (KINOMEscan)
T22 sequence (P49137 whole entry): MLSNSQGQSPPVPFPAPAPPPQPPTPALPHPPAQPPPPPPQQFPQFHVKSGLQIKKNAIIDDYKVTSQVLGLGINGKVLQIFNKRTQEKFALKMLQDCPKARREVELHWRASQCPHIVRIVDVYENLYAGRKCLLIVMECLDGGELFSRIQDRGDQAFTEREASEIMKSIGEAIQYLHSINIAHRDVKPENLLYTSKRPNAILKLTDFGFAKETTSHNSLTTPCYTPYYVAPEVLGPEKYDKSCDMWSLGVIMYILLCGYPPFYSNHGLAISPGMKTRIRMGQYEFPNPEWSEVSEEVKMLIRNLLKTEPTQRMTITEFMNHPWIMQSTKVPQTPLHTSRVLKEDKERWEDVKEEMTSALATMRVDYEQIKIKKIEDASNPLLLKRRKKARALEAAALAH
Source text: as §1

MARK1 = target: T23, MARK1 (Homo sapiens, UniProt Q9P0L2); details: compound concentration 10 uM, read-out: Percent Competition
T23 construct: purchased Ambit Biosciences (KINOMEscan)
Source text: as §1

MLK1 = target: T24, MLK1 (Homo sapiens, UniProt P80192); details: compound concentration 10 uM, read-out: Percent Competition
T24 construct: purchased Ambit Biosciences (KINOMEscan)
Source text: as §1

MLK2 = target: T25, MLK2 (Homo sapiens, UniProt Q02779); details: compound concentration 10 uM, read-out: Percent Competition
T25 construct: purchased Ambit Biosciences (KINOMEscan)
Source text: as §1

MLK3 = target: T26, MLK3 (Homo sapiens, UniProt Q16584); details: compound concentration 10 uM
T26 construct: purchased Ambit Biosciences (KINOMEscan)
T26 sequence (Q16584 whole entry): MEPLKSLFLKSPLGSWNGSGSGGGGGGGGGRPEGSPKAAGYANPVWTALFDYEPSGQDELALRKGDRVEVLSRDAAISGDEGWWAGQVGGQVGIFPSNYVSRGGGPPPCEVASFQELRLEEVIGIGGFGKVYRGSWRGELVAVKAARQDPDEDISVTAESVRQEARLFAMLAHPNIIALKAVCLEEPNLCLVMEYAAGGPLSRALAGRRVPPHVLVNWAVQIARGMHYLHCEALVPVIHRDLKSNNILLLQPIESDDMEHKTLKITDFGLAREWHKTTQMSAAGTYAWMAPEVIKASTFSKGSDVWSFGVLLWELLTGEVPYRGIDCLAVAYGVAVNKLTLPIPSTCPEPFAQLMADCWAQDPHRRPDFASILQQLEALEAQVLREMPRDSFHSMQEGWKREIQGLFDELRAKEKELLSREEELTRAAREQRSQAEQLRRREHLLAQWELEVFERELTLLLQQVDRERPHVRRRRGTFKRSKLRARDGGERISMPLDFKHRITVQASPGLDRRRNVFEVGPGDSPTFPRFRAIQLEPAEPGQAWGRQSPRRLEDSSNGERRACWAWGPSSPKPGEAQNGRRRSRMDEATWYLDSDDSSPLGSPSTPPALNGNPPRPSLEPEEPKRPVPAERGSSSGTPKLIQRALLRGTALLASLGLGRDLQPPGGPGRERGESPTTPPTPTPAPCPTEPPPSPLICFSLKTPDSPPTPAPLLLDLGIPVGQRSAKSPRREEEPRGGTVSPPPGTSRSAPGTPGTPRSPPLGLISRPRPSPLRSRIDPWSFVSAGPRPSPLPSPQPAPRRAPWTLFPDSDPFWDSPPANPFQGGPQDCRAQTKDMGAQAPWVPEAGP
Source text: as §1

MST2 = target: T27, MST2 (Homo sapiens, UniProt Q13188); details: compound concentration 10 uM, read-out: Percent Competition
T27 construct: purchased Ambit Biosciences (KINOMEscan)
Source text: as §1

MYLK2 = target: T28, MYLK2 (Homo sapiens, UniProt Q9H1R3); details: compound concentration 10 uM, read-out: Percent Competition
T28 construct: purchased Ambit Biosciences (KINOMEscan)
Source text: as §1

NDR2 = target: T29, NDR2 (Homo sapiens, UniProt Q9Y2H1); details: compound concentration 10 uM, read-out: Percent Competition
T29 construct: purchased Ambit Biosciences (KINOMEscan)
Source text: as §1

NEK7 = target: T30, NEK7 (Homo sapiens, UniProt Q8TDX7); details: compound concentration 10 uM, read-out: Percent Competition
T30 construct: purchased Ambit Biosciences (KINOMEscan)
Source text: as §1

PAK2 = target: T31, PAK2 (Homo sapiens, UniProt Q13177); details: compound concentration 10 uM, read-out: Percent Competition
T31 construct: purchased Ambit Biosciences (KINOMEscan)
Source text: as §1

PIK3CB = target: T32, PIK3CB (Homo sapiens, UniProt P42338); details: compound concentration 10 uM, read-out: Percent Competition
T32 construct: purchased Ambit Biosciences (KINOMEscan)
Source text: as §1

PIK3CG = target: T33, PIK3CG (Homo sapiens, UniProt P48736); details: compound concentration 10 uM, read-out: Percent Competition
T33 construct: purchased Ambit Biosciences (KINOMEscan)
Source text: as §1

PKAC-alpha = target: T34, PKAC-alpha (Homo sapiens, UniProt P17612); details: compound concentration 10 uM, read-out: Percent Competition
T34 construct: purchased Ambit Biosciences (KINOMEscan)
Source text: as §1

PKN2 = target: T35, PKN2 (Homo sapiens, UniProt Q16513); details: compound concentration 10 uM, read-out: Percent Competition
T35 construct: purchased Ambit Biosciences (KINOMEscan)
T35 sequence (Q16513 whole entry): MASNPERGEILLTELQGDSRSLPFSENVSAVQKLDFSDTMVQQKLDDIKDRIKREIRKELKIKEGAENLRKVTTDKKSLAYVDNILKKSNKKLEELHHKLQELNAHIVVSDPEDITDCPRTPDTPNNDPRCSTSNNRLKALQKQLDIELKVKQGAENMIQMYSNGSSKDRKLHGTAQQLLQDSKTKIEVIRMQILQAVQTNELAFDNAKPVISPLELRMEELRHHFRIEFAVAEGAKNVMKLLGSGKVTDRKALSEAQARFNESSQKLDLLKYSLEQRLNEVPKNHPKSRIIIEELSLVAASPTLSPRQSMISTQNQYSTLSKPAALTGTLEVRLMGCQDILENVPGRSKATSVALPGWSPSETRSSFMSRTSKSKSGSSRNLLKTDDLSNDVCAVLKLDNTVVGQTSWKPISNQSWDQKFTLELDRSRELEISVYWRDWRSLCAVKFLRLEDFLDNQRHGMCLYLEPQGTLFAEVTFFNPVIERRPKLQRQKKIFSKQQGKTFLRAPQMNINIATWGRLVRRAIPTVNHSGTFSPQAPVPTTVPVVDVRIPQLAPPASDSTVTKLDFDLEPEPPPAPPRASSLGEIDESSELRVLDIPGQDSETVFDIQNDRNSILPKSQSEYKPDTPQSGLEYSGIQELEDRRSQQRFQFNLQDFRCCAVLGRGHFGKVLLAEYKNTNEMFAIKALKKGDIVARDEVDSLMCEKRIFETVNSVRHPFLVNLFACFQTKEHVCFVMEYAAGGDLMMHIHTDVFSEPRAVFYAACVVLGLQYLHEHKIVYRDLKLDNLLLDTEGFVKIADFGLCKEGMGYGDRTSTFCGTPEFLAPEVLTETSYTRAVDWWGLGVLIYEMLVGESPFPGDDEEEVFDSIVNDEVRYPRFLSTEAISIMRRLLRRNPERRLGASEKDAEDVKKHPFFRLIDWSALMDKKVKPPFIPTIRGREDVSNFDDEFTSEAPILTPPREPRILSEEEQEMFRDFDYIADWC
Source text: as §1

PLK1 = target: T36, PLK1 (Homo sapiens, UniProt P53350); details: compound concentration 10 uM, read-out: Percent Competition
T36 construct: purchased Ambit Biosciences (KINOMEscan)
Source text: as §1

SRPK3 = target: T37, SRPK3 (Homo sapiens, UniProt Q9UPE1); details: compound concentration 10 uM, read-out: Percent Competition
T37 construct: purchased Ambit Biosciences (KINOMEscan)
T37 sequence (Q9UPE1 whole entry): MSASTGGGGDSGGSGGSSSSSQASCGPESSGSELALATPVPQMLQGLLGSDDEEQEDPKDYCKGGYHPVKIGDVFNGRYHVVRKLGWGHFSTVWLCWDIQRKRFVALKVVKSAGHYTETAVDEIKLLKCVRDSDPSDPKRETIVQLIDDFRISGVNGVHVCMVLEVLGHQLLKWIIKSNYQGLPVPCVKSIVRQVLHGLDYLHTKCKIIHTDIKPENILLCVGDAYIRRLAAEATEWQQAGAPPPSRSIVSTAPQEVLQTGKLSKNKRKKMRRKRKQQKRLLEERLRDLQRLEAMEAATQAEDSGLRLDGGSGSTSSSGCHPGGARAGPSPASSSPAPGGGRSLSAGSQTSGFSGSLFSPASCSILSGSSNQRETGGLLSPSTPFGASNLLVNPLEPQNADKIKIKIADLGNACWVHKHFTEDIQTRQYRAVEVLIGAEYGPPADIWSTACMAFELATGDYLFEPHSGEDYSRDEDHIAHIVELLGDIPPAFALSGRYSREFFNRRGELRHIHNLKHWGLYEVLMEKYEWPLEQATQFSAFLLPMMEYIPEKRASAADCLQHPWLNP
Source text: as §1

TIE2 = target: T38, TIE2 (Homo sapiens, UniProt Q02763); details: compound concentration 10 uM, read-out: Percent Competition
T38 construct: purchased Ambit Biosciences (KINOMEscan)
Source text: as §1

TNK1 = target: T39, TNK1 (Homo sapiens, UniProt Q13470); details: compound concentration 10 uM, read-out: Percent Competition
T39 construct: purchased Ambit Biosciences (KINOMEscan)
Source text: as §1

[2] = target: T40, TYK2(JH1domain-catalytic) (Homo sapiens, UniProt P29597); details: compound concentration 10 uM
T40 construct: TYK2(JH1domain-catalytic); purchased Ambit Biosciences (KINOMEscan)
Source text: as §1

ULK3 = target: T41, ULK3 (Homo sapiens, UniProt Q6PHR2); details: compound concentration 10 uM
T41 construct: purchased Ambit Biosciences (KINOMEscan)
Source text: as §1

ZAK = target: T42, ZAK (Homo sapiens, UniProt Q9NYL2); details: compound concentration 10 uM, read-out: Percent Competition
T42 construct: purchased Ambit Biosciences (KINOMEscan)
Source text: as §1

Fc1ccc(-c2c(-c3ccncc3)[nH]c3nccnc23)cc1 [RO1155697-000-005]
91%: inhibition at 10 µM (CDC2L1)
< 50%: inhibition at 10 µM (AAK1) | inhibition at 10 µM (AMPK-alpha2) | inhibition at 10 µM (ASK1) | inhibition at 10 µM (BLK) | inhibition at 10 µM (BRK) | inhibition at 10 µM (BRSK2) | inhibition at 10 µM (CSNK2A1) | inhibition at 10 µM (DCAMKL2) | inhibition at 10 µM (DCAMKL3) | inhibition at 10 µM (DMPK) | inhibition at 10 µM (FAK) | inhibition at 10 µM (FGFR4) | inhibition at 10 µM (FLT4) | inhibition at 10 µM (HIPK1) | inhibition at 10 µM (IGF1R) | inhibition at 10 µM (LTK) | inhibition at 10 µM (MAP3K3) | inhibition at 10 µM (MAPKAPK2) | inhibition at 10 µM (MARK1) | inhibition at 10 µM (MLK1) | inhibition at 10 µM (MLK2) | inhibition at 10 µM (MST2) | inhibition at 10 µM (MYLK2) | inhibition at 10 µM (NDR2) | inhibition at 10 µM (NEK7) | inhibition at 10 µM (PAK2) | inhibition at 10 µM (PIK3CB) | inhibition at 10 µM (PIK3CG) | inhibition at 10 µM (PKAC-alpha) | inhibition at 10 µM (PKN2) | inhibition at 10 µM (PLK1) | inhibition at 10 µM (SRPK3) | inhibition at 10 µM (TIE2) | inhibition at 10 µM (TNK1) | inhibition at 10 µM (ZAK)
<50%: Percent Competition (CDK8) | Percent Competition (EPHB2) | Percent Competition [1] | Percent Competition (MLK3) | Percent Competition [2] | Percent Competition (ULK3)
